Patent publication US8513232B2, “Substituted spirocyclic piperidine derivatives as histamine-3 (H3) receptor ligands” (Cephalon, Inc., priority 2008, dated 2013)
Where two headings read alike, the source gives them in different places.

Columns and labels:
human H3 receptor = target: T1, human H3 receptor (Homo sapiens, UniProt Q9Y5N1); assay: Human H3 radioligand binding ([3H]-N-alpha-methylhistamine, SPA)
T1 construct: expressed in transfected cells
In short: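 Compounds (0.01 nM-30 μM) competed with approximately 1 nM [3H]-N-alpha-methylhistamine for human H3 receptor in membranes of stably transfected CHO cells, 10 μg protein per well, in Tris-HCl pH 7.4/MgCl2/BSA buffer for 4 h at room temperature. Bound radioligand measured by scintillation proximity; 10 μM clobenpropit gave non-specific binding.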

[1] = target: T2, rat histamine H3 receptor (Rattus norvegicus, UniProt Q9QYN8); assay: Rat H3 radioligand binding ([3H]-N-alpha-methylhistamine, SPA)
T2 construct: encoding the entire 445-amino-acid rat histamine H3 receptor; expressed in transfected cells; membrane preparation
T2 sequence (Q9QYN8 whole entry): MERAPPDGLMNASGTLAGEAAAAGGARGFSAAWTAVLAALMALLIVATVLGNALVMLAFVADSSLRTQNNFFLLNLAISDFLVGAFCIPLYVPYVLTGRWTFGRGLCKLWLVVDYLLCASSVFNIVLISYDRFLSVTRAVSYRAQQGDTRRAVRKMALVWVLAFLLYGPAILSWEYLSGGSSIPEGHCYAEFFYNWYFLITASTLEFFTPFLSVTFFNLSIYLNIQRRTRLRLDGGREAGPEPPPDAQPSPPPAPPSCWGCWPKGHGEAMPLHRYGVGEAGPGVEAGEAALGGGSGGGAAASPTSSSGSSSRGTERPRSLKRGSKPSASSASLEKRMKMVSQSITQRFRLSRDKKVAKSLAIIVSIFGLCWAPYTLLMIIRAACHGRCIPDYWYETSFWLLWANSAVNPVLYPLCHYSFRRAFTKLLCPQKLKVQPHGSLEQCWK
In short: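 SPA-bead binding assay using [3H]-N-alpha-methylhistamine (approximately 1 nM final) with test compounds from 0.01 nM to 30 μM. Rat H3 receptor membranes came from stably transfected CHO-A3 cells; incubation ran 4 h at room temperature, in the dark, in Tris pH 7.4 buffer with MgCl2 and BSA. Clobenpropit (10 μM) gave non-specific binding.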

[2] = Table A, human H3 binding, read-out: Human Ki
[3] = Table A, rat H3 binding, read-out: Rat Ki
[4] = Human H3 binding, Table B, Examples 136-362, read-out: hum H3 binding Ki
[5] = Rat H3 binding, Table B, Examples 136-362, read-out: rat H3 binding Ki
[6] = human H3 binding, Table D, read-out: Human H3 Ki
[7] = rat H3 binding, Table D, read-out: Rat H3 Ki
[8] = Table C, human H3 binding, read-out: Human H3 Ki
[9] = Table C, rat H3 binding, read-out: Rat H3 Ki

T1 sequence (Q9Y5N1 whole entry): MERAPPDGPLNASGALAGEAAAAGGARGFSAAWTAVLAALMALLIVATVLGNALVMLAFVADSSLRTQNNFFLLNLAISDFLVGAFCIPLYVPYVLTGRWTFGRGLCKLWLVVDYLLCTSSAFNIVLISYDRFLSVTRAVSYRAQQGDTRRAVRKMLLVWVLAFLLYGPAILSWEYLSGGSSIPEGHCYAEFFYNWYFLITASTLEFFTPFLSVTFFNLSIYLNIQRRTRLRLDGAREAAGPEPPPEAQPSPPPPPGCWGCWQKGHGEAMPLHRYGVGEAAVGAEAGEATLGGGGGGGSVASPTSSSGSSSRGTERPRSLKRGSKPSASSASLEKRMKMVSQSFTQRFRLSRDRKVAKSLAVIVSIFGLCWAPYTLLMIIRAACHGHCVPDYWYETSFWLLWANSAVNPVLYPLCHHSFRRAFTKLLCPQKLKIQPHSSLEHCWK

Row | SMILES | melting point | Ki (human H3 receptor; [4]) | Ki [1, 5] | Ki (human H3 receptor; [6]) | Ki [1, 7] | further results
1 | O=C(c1ccc(-c2ccc3c(c2)COC2(CCN(C4CCC4)CC2)O3)cc1)N1CC[C@H](F)C1 [Example 68] | 184 to 186 °C |  |  |  |  | Ki (human H3 receptor; [2]): < 200 nM; Ki [1, 3]: < 200 nM
2 | c1cc(-c2ccc3c(c2)CCC2(CCN(C4CCC4)CC2)O3)ccc1C1=NCCO1 [Example 158] | 213 to 215 °C | < 200 nM | < 200 nM |  |  | 
3 | O=C(NC[C@H]1CCCO1)c1ccc(-c2ccc3c(c2)COC2(CCN(C4CCC4)CC2)O3)cc1Cl [Example 579] | 155 to 157 °C |  |  | < 200 nM | < 200 nM | 
4 | c1ccc(CNc2ccc3c(c2)COC2(CCN(C4CCC4)CC2)O3)cc1 [Example 305] | 85 to 87 °C | < 200 nM | < 200 nM |  |  | 
5 | c1cc2c(cc1N1CCC1)CCC1(CCN(C3CCC3)CC1)O2 [Example 438] | 118 to 120 °C |  |  |  |  | Ki (human H3 receptor; [8]): < 200 nM; Ki [1, 9]: < 200 nM
6 | OC(c1ccc2c(c1)COC1(CCN(C3CCC3)CC1)O2)c1cscn1 (stereo not drawn) [Example 697] | 63 to 68 °C |  |  | < 200 nM | < 200 nM | 
7 | CN(C)S(=O)(=O)c1ccc(-c2ccc3c(c2)COC2(CCN(C4CCC4)CC2)O3)s1 [Example 654] | 189 to 192 °C |  |  | < 200 nM | < 200 nM | 
8 | COCCNC(=O)c1ccc(-c2ccc3c(c2)CCC2(CCN(C4CCC4)C2)O3)cc1F (stereo not drawn) [Example 337] | 58 to 60 °C | < 200 nM | < 200 nM |  |  | 
9 | CC(C)NC(=O)c1ccc(-c2ccc3c(c2)CCC2(CCN(C4CCC4)CC2)O3)cc1 [Example 302] | 191 to 192 °C | < 200 nM | < 200 nM |  |  | 
10 | CNC(=O)c1ccc(-c2ccc3c(c2)COC2(CCN(C4CCC4)CC2)O3)c(C)c1 [Example 681] | 210 to 211 °C |  |  | < 200 nM | < 200 nM | 
11 | Nc1ccc2c(c1)COC1(CCN(C3CCC3)CC1)O2 [Example 350] | 160 to 162 °C | 200 to 1000 nM | 200 to 1000 nM |  |  | 
12 | c1nc(-c2ccc3c(c2)COC2(CCN(C4CCC4)CC2)O3)cs1 [Example 66] | 165 to 166 °C |  |  |  |  | Ki (human H3 receptor; [2]): < 200 nM; Ki [1, 3]: < 200 nM
13 | [O-][S+]1CC=C(c2ccc3c(c2)COC2(CC[N+]([O-])(C4CCC4)CC2)O3)CC1 (stereo not drawn) [Example 472] | 130 to 133 °C |  |  |  |  | Ki (human H3 receptor; read-out: Human H3 Ki): < 200 nM; Ki ([1]; read-out: Rat H3 kI): < 200 nM
14 | COc1nc(C)c(-c2ccc3c(c2)COC2(CCN(C4CCC4)CC2)O3)cc1C#N [Example 796] | 215 to 217 °C |  |  | < 200 nM | < 200 nM | 
15 | CN(C)C(=O)N1CCC(COc2ccc3c(c2)CCC2(CCN(C4CCC4)CC2)O3)CC1 [Example 576] | 230 to 232 °C |  |  | < 200 nM | < 200 nM | 
16 | O=C(O)c1ccc(-c2ccc3c(c2)COC2(CCN(C4CCC4)CC2)O3)cc1 [Example 668] | 236 to 237 °C |  |  | < 200 nM | < 200 nM | 
17 | Cc1nnc(C2CC=C(c3ccc4c(c3)COC3(CCN(C5CCC5)CC3)O4)CC2)o1 (stereo not drawn) [Example 689] | 76.4 to 78.4 °C |  |  | < 200 nM | < 200 nM | 
18 | COc1ccc(Oc2ccc3c(c2)CCC2(CCN(C4CCC4)CC2)O3)cn1 [Example 481] | 232 to 234 °C |  |  |  |  | Ki (human H3 receptor; read-out: Human H3 Ki): < 200 nM; Ki ([1]; read-out: Rat H3 kI): < 200 nM
19 | CS(=O)(=O)c1ccc(-c2ccc3c(c2)COC2(CCN(C4CCC4)CC2)O3)cc1Cl [Example 622] | 198 to 201 °C |  |  | < 200 nM | < 200 nM | 
20 | Cc1cc(=O)[nH]cc1-c1ccc2c(c1)COC1(CCN(C3CCC3)CC1)O2 [Example 651] | 217 to 220 °C |  |  | < 200 nM | < 200 nM | 
21 | OC1(c2ccc3c(c2)COC2(CCN(C4CCC4)CC2)O3)CCOC1 (stereo not drawn) [Example 506] | 50 °C |  |  |  |  | Ki (human H3 receptor; read-out: Human H3 Ki): < 200 nM; Ki ([1]; read-out: Rat H3 kI): < 200 nM
22 | CC(C)C(=O)N1CCN(c2ccc3c(c2)CCC2(CCN(C4CCC4)CC2)O3)CC1 [Example 381] | 173 to 175 °C |  |  |  |  | Ki (human H3 receptor; [8]): < 200 nM; Ki [1, 9]: < 200 nM
23 | Cc1cc(=O)n(CC(F)(F)F)cc1-c1ccc2c(c1)COC1(CCN(C3CCC3)CC1)O2 [Example 755] | 60 to 62 °C |  |  | < 200 nM | < 200 nM | 
24 | c1cc2c(cc1OCC1CC1)CCC1(CCN(C3CCC3)C1)O2 (stereo not drawn) [Example 446] | 177 to 178 °C |  |  |  |  | Ki (human H3 receptor; read-out: Human H3 Ki): 200 to 1000 nM; Ki ([1]; read-out: Rat H3 kI): 200 to 1000 nM
25 | COC1CCN(C(=O)c2ccc(-c3ccc4c(c3)CCC3(CCN(C5CCC5)CC3)O4)cc2)CC1 [Example 230] | 66.8 to 67.5 °C | < 200 nM | < 200 nM |  |  | 

Row | SMILES | melting point | Ki (human H3 receptor; [4]) | Ki [1, 5] | Ki (human H3 receptor; [6]) | Ki [1, 7] | further results
26 | CN(C(=O)N1CCN(c2ccc3c(c2)COC2(CCN(C4CCC4)CC2)O3)CC1)c1ccccc1 [Example 293] | 107 to 110 °C | < 200 nM | < 200 nM |  |  | 
27 | COC[C@H](C)NC(=O)c1ccc(-c2ccc3c(c2)CCC2(CCN(C4CCC4)CC2)O3)cc1Cl [Example 591] | 120 to 122 °C |  |  | < 200 nM | < 200 nM | 
28 | CNC(=O)NCc1ccc(-c2ccc3c(c2)COC2(CCN(C4CCC4)CC2)O3)cc1 [Example 181] | 205 to 206.5 °C | < 200 nM | < 200 nM |  |  | 
29 | O=C(c1cccc(-c2ccc3c(c2)COC2(CCN(C4CCC4)CC2)O3)c1)N1CCCC1 [Example 57] | 221.7 °C |  |  |  |  | Ki (human H3 receptor; [2]): < 200 nM; Ki [1, 3]: < 200 nM
30 | CN(C)C(=O)c1ccc(Oc2ccc3c(c2)CCC2(CCN(C4CCC4)CC2)O3)nc1 [Example 407] | 267 to 269 °C |  |  |  |  | Ki (human H3 receptor; [8]): < 200 nM; Ki [1, 9]: 200 to 1000 nM
31 | COc1ccncc1-c1ccc2c(c1)COC1(CCN(C3CCC3)CC1)O2 [Example 749] | 58 to 60 °C |  |  | < 200 nM | < 200 nM | 
32 | c1cc2c(cc1C1CCSCC1)COC1(CCN(C3CCC3)CC1)O2 [Example 480] | 153 to 155 °C |  |  |  |  | Ki (human H3 receptor; read-out: Human H3 Ki): < 200 nM; Ki ([1]; read-out: Rat H3 kI): < 200 nM
33 | Clc1ccc(COc2ccc3c(c2)CCC2(CCN(C4CCC4)CC2)O3)cc1 [Example 288] | 115 to 116 °C | < 200 nM | < 200 nM |  |  | 
34 | Clc1ccc(Nc2ccc3c(c2)COC2(CCN(C4CCC4)CC2)O3)cc1 [Example 259] | 234 to 235 °C | < 200 nM | < 200 nM |  |  | 
35 | Cn1cc2c(n1)CCC(c1ccc3c(c1)COC1(CCN(C4CCC4)CC1)O3)=C2 [Example 459] | 149 to 150 °C |  |  |  |  | Ki (human H3 receptor; read-out: Human H3 Ki): < 200 nM; Ki ([1]; read-out: Rat H3 kI): < 200 nM
36 | O=C1CCCN1CCCOc1ccc2c(c1)CCC1(CCN(C3CCC3)CC1)O2 [Example 462] | 196 to 198 °C |  |  |  |  | Ki (human H3 receptor; read-out: Human H3 Ki): < 200 nM; Ki ([1]; read-out: Rat H3 kI): < 200 nM
37 | O=C(c1ccc(-c2ccc3c(c2)CCC2(CCN(C4CCC4)CC2)O3)cc1F)N1CC[C@H](O)C1 [Example 194] | 78 to 80 °C | < 200 nM | < 200 nM |  |  | 
38 | O=C(NCCO)c1c(F)cc(-c2ccc3c(c2)COC2(CCN(C4CCC4)CC2)O3)cc1F [Example 261] | 78.6 to 80.4 °C | < 200 nM | < 200 nM |  |  | 
39 | O=S(=O)(N1CCN(c2ccc3c(c2)COC2(CCN(C4CCC4)CC2)O3)CC1)C(F)(F)F [Example 299] | 154.6 to 156.4 °C | < 200 nM | < 200 nM |  |  | 
40 | O=C1CCN(c2ccc3c(c2)CCC2(CCN(C4CCC4)CC2)O3)CC1 [Example 399] | > 247 °C (dec.) |  |  |  |  | Ki (human H3 receptor; [8]): < 200 nM; Ki [1, 9]: < 200 nM
41 | CNC(=O)c1cccc(-c2ccc3c(c2)CCOC2(CCN(C4CCC4)CC2)O3)c1 [Example 177] | 100.2 to 102.5 °C | 200 to 1000 nM | > 1000 nM |  |  | 
42 | Cc1c(-c2ccc3c(c2)COC2(CCN(C4CCC4)CC2)O3)cn(C(C)C)c(=O)c1C [Example 776] | 89 to 92 °C |  |  | < 200 nM | < 200 nM | 
43 | Cc1cccc(C)c1-c1ccc2c(c1)COC1(CCN(C3CCC3)CC1)O2 [Example 756] | 58 to 60 °C |  |  | < 200 nM | 200 to 1000 nM | 
44 | O=S1(=O)CCC(c2ccc3c(c2)COC2(CCN(C4CCC4)CC2)O3)CC1 [Example 489] | 210 to 211 °C |  |  |  |  | Ki (human H3 receptor; read-out: Human H3 Ki): < 200 nM; Ki ([1]; read-out: Rat H3 kI): < 200 nM
45 | CC(C)n1cc(Cl)c(-c2ccc3c(c2)COC2(CCN(C4CCC4)CC2)O3)cc1=O [Example 779] | 179 to 181 °C |  |  | < 200 nM | < 200 nM | 
46 | COCCN(C)C(=O)c1ccc(-c2ccc3c(c2)COC2(CCN(C4CCC4)CC2)O3)cc1Cl [Example 577] | 105 to 107 °C |  |  | < 200 nM | < 200 nM | 
47 | O=C(N1CCCC1)N1CCN(c2ccc3c(c2)COC2(CCN(C4CCC4)CC2)O3)CC1 [Example 307] | 132 to 135 °C | < 200 nM | < 200 nM |  |  | 
48 | Cn1cc2c(n1)CCC(c1ccc3c(c1)CCC1(CCN(C4CCC4)CC1)O3)=C2 [Example 448] | 205 to 208 °C |  |  |  |  | Ki (human H3 receptor; read-out: Human H3 Ki): < 200 nM; Ki ([1]; read-out: Rat H3 kI): < 200 nM
49 | CNC(=O)c1cnc(-c2ccc3c(c2)CCC2(CCN(C4CCC4)CC2)O3)s1 [Example 218] | 201 to 203 °C | < 200 nM | < 200 nM |  |  | 
